Holding throughout (type): functional
Test [1] deals with Bacillus subtilis. Briefly: Induction of poly-gamma-glutamic acid production in Bacillus subtilis subsp. natto at >1 nM incubated for 72 hrs at 37 degC by ultra-filtration method.
The subject of test [2] is Bacillus subtilis. Briefly: Induction of poly-gamma-glutamic acid production in Bacillus subtilis subsp. natto at 10 nM incubated for 72 hrs at 37 degC by ultra-filtration method.
Test [3] relates to Bacillus subtilis. Briefly: Induction of poly-gamma-glutamic acid production in Bacillus subtilis subsp. natto at 100 nM incubated for 72 hrs at 37 degC by ultra-filtration method.
Test [4] concerns Bacillus subtilis. The test is described as follows: Induction of poly-gamma-glutamic acid production in Bacillus subtilis subsp. natto at 1000 nM incubated for 72 hrs at 37 degC by ultra-filtration method.

Calls of active or inactive are those of the source. The calls are words filed in the database; no cut-off is given here. *1 amine or outer side, *2 acyl side, *3 side chain or, on linkers, in order; H or OH if unused. Where a SMILES comes first, the peptide text is derived from it. [ ]: non-standard residue; d: D form. X1 = CC(C)=CCC/C(C)=C/CC/C(C)=C/C[C@]12C[C@@H](C(=O)[*:2])N([*:1])[C@@H]1Nc1ccccc12

`CC[C@H](C)[C@H](NC(=O)[C@@H]1CCCN1C(=O)[C@@H]1CCCN1C(=O)[C@@H]1C[C@]2(C/C=C(\C)CC/C=C(\C)CCC=C(C)C)c3ccccc3N[C@H]2N1C(=O)[C@@H](N)CCCCN)C(=O)N[C@@H](CCC(=O)O)C(=O)O` (H-K[X1]PPIE-OH): the result in test [1] and in test [2] was Active. Besides, the “fold change (FC)” value in test [3] was found to be 2.

In the case of H-KWPPIE-OH, the result in test [4] was inactive.

(Values after ChEMBL document CHEMBL3616429, “Chemical structure and biological activity of a quorum sensing pheromone from Bacillus subtilis subsp. natto” (2015).)
